This note sets out measurements from ChEMBL document CHEMBL3396992, “Synthesis and biological evaluation of pyrazolylthiazole carboxylic acids as potent anti-inflammatory-antimicrobial agents” (2015).

Assay [1] concerns Rattus norvegicus. In words: Antiinflammatory activity against carrageenan-induced paw edema male Wistar albino rat at 50 mg/kg, ip administered 30 mins prior to carrageenan-challenge measured after 4 hrs relative to control. Type of assay: functional. The note with it: route intraperitoneal.
For a further assay, the system named is Escherichia coli. In words: Antimicrobial activity against Escherichia coli MTCC 1652 assessed as growth inhibition at 4 mg/ml after 24 hrs by agar well diffusion method. It counts as functional, organism-based.
In assay [2] the test system is Bacillus subtilis. In words: Antimicrobial activity against Bacillus subtilis MTCC 121 assessed as growth inhibition after 24 hrs by agar well diffusion method. It counts as functional.
In another assay the test system is Pseudomonas aeruginosa. The note with it: MTCC 741, 4 mg/ml.
The test system of assay [3] is Rattus norvegicus. In words: Antiinflammatory activity against carrageenan-induced paw edema male Wistar albino rat at 50 mg/kg, ip administered 30 mins prior to carrageenan-challenge measured after 3 hrs relative to control. It counts as functional. The note with it: route intraperitoneal.
Assay [4] deals with Rattus norvegicus. Description: Antiinflammatory activity against carrageenan-induced paw edema male Wistar albino rat at 50 mg/kg, ip administered 30 mins prior to carrageenan-challenge measured after 1 hr relative to control. It counts as functional. The note with it: route intraperitoneal.
The subject of assay [5] is Rattus norvegicus. Description: Antiinflammatory activity against carrageenan-induced paw edema male Wistar albino rat assessed as edema volume at 50 mg/kg, po administered 30 mins prior to carrageenan-challenge measured after 1 hr (reference value: 1.11 +/- 0.12 mL). Type of assay: functional.
In assay [6] the test system is Rattus norvegicus. Description: Antiinflammatory activity against carrageenan-induced paw edema male Wistar albino rat at 50 mg/kg, ip administered 30 mins prior to carrageenan-challenge measured after 2 hrs relative to control. It counts as functional. The settings on record: route intraperitoneal.
Assay [7] deals with Saccharomyces cerevisiae. In words: Antimicrobial activity against Saccharomyces cerevisiae MTCC 170 assessed as growth inhibition at 4 mg/ml after 24 hrs by agar well diffusion method. The note with it: for zone of inhibition at 4000 µg/mL: MTCC 170, 24 h, read-out: DIZ. It counts as functional.
Assay [8] concerns Saccharomyces cerevisiae. In words: Antimicrobial activity against Saccharomyces cerevisiae MTCC 170 assessed as growth inhibition after 24 hrs by agar well diffusion method. Type of assay: functional.
Assay [9] relates to Rattus norvegicus. In words: Antiinflammatory activity against carrageenan-induced paw edema male Wistar albino rat assessed as edema volume at 50 mg/kg, ip administered 30 mins prior to carrageenan-challenge measured after 4 hrs (reference value: 1.88 +/- 0.20 mL). It counts as functional. The settings on record: route intraperitoneal.
Assay [10] relates to Staphylococcus aureus. In words: Antimicrobial activity against Staphylococcus aureus MTCC 96 assessed as growth inhibition at 4 mg/ml after 24 hrs by agar well diffusion method. The settings on record: for zone of inhibition at 4000 µg/mL: MTCC 96, 24 h, read-out: DIZ. Type of assay: functional.
Assay [11] has as its system Rattus norvegicus. Description: Antiinflammatory activity against carrageenan-induced paw edema male Wistar albino rat assessed as edema volume at 50 mg/kg, ip administered 30 mins prior to carrageenan-challenge measured after 3 hrs (reference value: 1.73 +/- 0.09 mL). Type of assay: functional. The note with it: route intraperitoneal.
Assay [12] has as its system Candida albicans. Description: Antimicrobial activity against Candida albicans MTCC 3017 assessed as growth inhibition after 24 hrs by agar well diffusion method. Type of assay: functional. The note with it: MTCC 3017, 24 h.
For assay [13], the system named is Candida albicans. In words: Antimicrobial activity against Candida albicans MTCC 3017 assessed as growth inhibition at 4 mg/ml after 24 hrs by agar well diffusion method. Type of assay: functional. The note with it: MTCC 3017, 24 h, read-out: DIZ.
Assay [14] deals with Bacillus subtilis. Description: Antimicrobial activity against Bacillus subtilis MTCC 121 assessed as growth inhibition at 4 mg/ml after 24 hrs by agar well diffusion method. The note with it: for zone of inhibition at 4000 µg/mL: MTCC 121, 24 h, read-out: DIZ. Type of assay: functional.
Assay [15] relates to Rattus norvegicus. In words: Antiinflammatory activity against carrageenan-induced paw edema male Wistar albino rat assessed as edema volume at 50 mg/kg, ip administered 30 mins prior to carrageenan-challenge measured after 2 hrs (reference value: 1.21 +/- 0.16 mL). It counts as functional. The settings on record: route intraperitoneal.
Assay [16] has as its system Staphylococcus aureus. Description: Antimicrobial activity against Staphylococcus aureus MTCC 96 assessed as growth inhibition after 24 hrs by agar well diffusion method. Type of assay: functional.

Each structure is given as a SMILES string. Converted amounts (≈) assume the structure as drawn. The source made the active and inactive calls. The calls are words filed in the database; no cut-off is given here.

Description for Pseudomonas aeruginosa: Antimicrobial activity against Pseudomonas aeruginosa MTCC 741 assessed as growth inhibition at 4 mg/ml after 24 hrs by agar well diffusion method

As for `O=C(O)c1sc(-c2cn(-c3ccccc3)nc2-c2ccc(Cl)cc2)nc1-c1ccc(Cl)cc1`, the Activity in the assay with Rattus norvegicus [1] was determined as 85.1%; with Rattus norvegicus [3] it was 75.14%; in the assay with Rattus norvegicus [4], 76.57%; in the assay on Rattus norvegicus [5] it was 0.26 mL; with Rattus norvegicus [6] it was 80.99%; with Rattus norvegicus [9] it was 0.28 mL. In addition, the Activity in the assay on Rattus norvegicus [11] worked out at 0.43 mL; in the assay with Rattus norvegicus [15] it was 0.23 mL. For the same compound, the “diameter of the inhibition zone (DIZ)” value with Escherichia coli and in the assay on Staphylococcus aureus [10] was “inactive” in each case. In addition, the MIC in the assay with Bacillus subtilis [2] (MTCC 121, 24 h) came to 50 µg/mL (≈ 102 µM); with Saccharomyces cerevisiae [8] (MTCC 170, 24 h), 12.5 µg/mL (≈ 25.4 µM); in the assay on Candida albicans [12], 12.5 µg/mL (≈ 25.4 µM). In addition, the DIZ entry in the assay with Pseudomonas aeruginosa is “inactive”. The values for the zone of inhibition at 4000 µg/mL in the assay with Saccharomyces cerevisiae [7], with Candida albicans [13] and in the assay on Bacillus subtilis [14] were 24.6 mm, 23.6 mm and 16.6 mm, respectively. Also, in the assay on Staphylococcus aureus [16], the MIC entry was “inactive”.

`CCOC(=O)c1sc(-c2cn(-c3ccccc3)nc2-c2ccccc2)nc1-c1ccc(F)cc1`: the Activity is 88.29% in the assay on Rattus norvegicus [1]; 82.08% in the assay on Rattus norvegicus [3]; 73.87% in the assay on Rattus norvegicus [4]; 0.29 mL in the assay with Rattus norvegicus [5]; 81.81% in the assay on Rattus norvegicus [6]; 0.42 mL with Rattus norvegicus [9]. For the same compound, the Activity in the assay with Rattus norvegicus [11] was 0.31 mL; in the assay on Rattus norvegicus [15], 0.22 mL. Moreover, the “diameter of the inhibition zone (DIZ)” value in the assay on Escherichia coli, in the assay on Saccharomyces cerevisiae [7], in the assay on Staphylococcus aureus [10] and in the assay with Bacillus subtilis [14] was “inactive” throughout. For the same compound, the MIC result with Bacillus subtilis [2], with Saccharomyces cerevisiae [8] and in the assay with Staphylococcus aureus [16] was “inactive” throughout. Moreover, the DIZ result in the assay with Pseudomonas aeruginosa was “inactive”. For the same compound, in the assay with Candida albicans [12], the MIC was 25 µg/mL (≈ 53.2 µM). In addition, the zone of inhibition at 4000 µg/mL with Candida albicans [13] came out at 18.6 mm.

For the compound `COc1ccc(-c2nn(-c3ccccc3)cc2-c2nc(-c3ccc(Cl)cc3)c(C(=O)O)s2)cc1`, the Activity in the assay with Rattus norvegicus [1] was determined as 89.36%; in the assay on Rattus norvegicus [3], 83.81%; with Rattus norvegicus [4], 83.78%; in the assay on Rattus norvegicus [5], 0.18 mL; with Rattus norvegicus [6], 78.51%; in the assay with Rattus norvegicus [9], 0.2 mL. In addition, the Activity came to 0.28 mL in the assay on Rattus norvegicus [11] and 0.26 mL in the assay on Rattus norvegicus [15]. In addition, in the assay with Escherichia coli, the “diameter of the inhibition zone (DIZ)” value was “inactive”. Moreover, the MIC with Bacillus subtilis [2] (MTCC 121, 24 h) is 6.25 µg/mL (≈ 12.8 µM); with Saccharomyces cerevisiae [8] (MTCC 170, 24 h), 6.25 µg/mL (≈ 12.8 µM); in the assay with Candida albicans [12], 6.25 µg/mL (≈ 12.8 µM); with Staphylococcus aureus [16] (MTCC 96, 24 h), 6.25 µg/mL (≈ 12.8 µM). In addition, in the assay on Pseudomonas aeruginosa, the DIZ result was “inactive”. The zone of inhibition at 4000 µg/mL in the assay on Saccharomyces cerevisiae [7] was 27.6 mm; in the assay with Staphylococcus aureus [10] it was 24.6 mm; in the assay with Candida albicans [13] it was 27.6 mm; in the assay with Bacillus subtilis [14] it was 29.6 mm.

Turning to `COc1ccc(-c2nn(-c3ccccc3)cc2-c2nc(-c3ccccc3)c(C(=O)O)s2)cc1`, the Activity with Rattus norvegicus [1] is 87.76%; with Rattus norvegicus [3], 87.86%; in the assay with Rattus norvegicus [4], 81.98%; in the assay with Rattus norvegicus [5], 0.2 mL; in the assay on Rattus norvegicus [6], 86.77%; in the assay with Rattus norvegicus [9] it was 0.23 mL. Moreover, the Activity turned out to be 0.21 mL in the assay with Rattus norvegicus [11] and 0.16 mL in the assay on Rattus norvegicus [15]. Besides, the “diameter of the inhibition zone (DIZ)” value with Escherichia coli was “inactive”. Moreover, the MIC in the assay on Bacillus subtilis [2] (MTCC 121, 24 h) is 25 µg/mL (≈ 55.1 µM); with Saccharomyces cerevisiae [8] (MTCC 170, 24 h), 50 µg/mL (≈ 110 µM); with Candida albicans [12], 50 µg/mL (≈ 110 µM); in the assay with Staphylococcus aureus [16] (MTCC 96, 24 h), 25 µg/mL (≈ 55.1 µM). Besides, the DIZ entry in the assay with Pseudomonas aeruginosa was “inactive”. Further, the zone of inhibition at 4000 µg/mL was 16 mm with Saccharomyces cerevisiae [7], 21.6 mm in the assay with Staphylococcus aureus [10], 16.3 mm in the assay on Candida albicans [13] and 18.6 mm in the assay on Bacillus subtilis [14].
